What was measured:
[1] = Heating of strontium malonate sesquihydrate to remove bound crystal water; format: physicochemical
Procedure: The crystal water was irreversibly detached from the malonate at temperatures above approx. 70° C. Thus, anhydrous strontium malonate was produced in high yield and high purity by boiling a solution of strontium malonate.

new vertebral fracture = conditions: cited from earlier work

Compound	temperature above which crystal water is irreversibly detached [1] [°C]	RR of new vertebral fracture vs placebo (new vertebral fracture; 95% CI=0.48-0.73, P<0.001)	serum cross-linked C terminal telopeptides of type I collagen (CTX, marker of bone resorption) (new vertebral fracture; clinical studies, serum)	bone formation marker BSAP (new vertebral fracture; clinical studies)	patients who sustained a new vertebral fracture (new vertebral fracture; strontium treated group, vs 222 in the placebo group, more than 7000 individuals) [patients]
O.O.O.O=C([O-])CC(=O)[O-].O=C([O-])CC(=O)[O-].[Sr+2].[Sr+2] [strontium malonate sesquihydrate]	> 70				
N#Cc1c(N(CC(=O)[O-])CC(=O)[O-])sc(C(=O)[O-])c1CC(=O)[O-].[Sr+2].[Sr+2] [strontium ranelate]		0.59	decreased	increased	139

Source: patent US20090137678A1, “HIGH YIELD SYNTHESIS METHODS FOR PRODUCING ORGANIC SALTS OF STRONTIUM” (priority 2005, published 2009)
